According to patent US20240140953A1, “INHIBITORS OF MENIN-MLL INTERACTION” (BIOMEA FUSION, INC., priority 2018, published 2024):
Like-named read-outs stand apart in the source and are kept apart here.

Legend:
MV-4-11 = experiment: Long term proliferation assay (Table 3A), MV-4-11; format: cell-based; conditions: Homo sapiens, MV4-11
MOLM-13 (MLL-AF9) = experiment: Proliferation study, CellTiterGlo, 4 days (Example 102), MOLM-13; format: cell-based, human; conditions: MOLM-13, 4 days treatment; for IC50: Homo sapiens, 96 h, CellTiterGlo; for MOLM-13 (MLL-AF9) % max: maximal inhibition
Source text: The objective of the study was to evaluate the ability of representative compounds of the present invention, inhibitors of Menin/MLL interaction to inhibit cell proliferation. The proliferation inhibitory effect was investigated in two human MLL-leukemia cells selected on the bases of MLL fusion protein and listed in Table 102. HL-60 cell line was used as negative control.
ATP is present in all metabolically active cells and is considered as a marker for cell viability and proliferation. The metabolic cell activity was determined using the CellTiter-Glo kit from Promega, an ATP monitoring system based on the production of luminescence by the reaction of ATP with added UltraGlo® recombinant luciferase (Kawano et al., 2016), according to the supplier's experimental recommendations.
The described assay evaluates the ability of 4 representative compounds to inhibit the cell proliferation in the human MLL-leukemia cells plus a negative control cell line.
The assay provides potency values (IC50) for each test compound at a single time point Day 4 (T4).
Seven concentrations of the compounds (2.00E-05-6.67E-06-2.22E-06-7.41E-07-2.47E-07-8.23E-08-2.74E-08M), were assessed in duplicate in an individual test occasion in all the cell lines. MI-503 (Borkin et al., 2015) was used as reference compound and was tested at the same concentrations as the NCEs. 100% of proliferation is represented by the untreated cells (0.2% DMSO). The cell growth was monitored up to 4 days in culture.
MV4-11, MOLM-13 and HL-60 cells (see Table 2) were maintained in RPMI-1640 medium (Invitrogen, Cat. n. 618700, Batch n. 1965930) supplemented with 10% of Heat Inactivated FBS (Invitrogen, Cat n. 10500, Batch n. 08Q8078K) and 1% Pen-Strep (Invitrogen, Cat. N. 15140, Batch n. 1910859) and cultured at 37° C. in a humidified incubator with 5% CO2. All the cell lines grow in suspension and the cell density was maintained in a range of 2×10^5-1×10^6 viable cells/ml. Cells were pelleted at 130 g×5 min and conditioned medium was used to dilute the cell suspension.
Test items were dissolved in glass vials at 10 mM in DMSO with purity ≥99.9% (Sigma, D8418, batch n. SHBH4245V) and stored at −20° C. in 1.5 mL Eppendorf tubes.
Serial dilutions 1 to 3 in DMSO 100% were prepared starting from a 10 mM stock solutions to generate 7 points concentration response curve (CRC).
For each plate to test, one 0.4 μL copy plate and four 0.3 μL copy plates were then stamped into 96-well plates not treated for cell adhesion (Sarstedt—cat.no. 82.1581.001) by acoustic liquid Handling, Echo, at a concentration which was 500 fold the final assay concentration. Stamped plates were stored at −20° C. The final concentrations for the reference compound, MI-503, and the test items were: 2.00E-05, 6.67E-06, 2.22E-06, 7.41E-07, 2.47E-07, 8.23E-08 and 2.74E-08 M.
Cells were plated in 96-well flat bottom microtiter plates at cell density of 15,000 cells/ml for HL-60, 1000 cells/ml for MOLM-13 and 10,000 cell/ml for MV4-11. Cells were treated with 0.2% DMSO (Sigma, D8418, batch n. SHBH4245V) or serial dilutions of compounds (0.027 μM-20 μM) in DMSO (0.2% final concentration). Cells were incubated in a 5% CO2 incubator at 37° C. for 4 days. A CellTiterGlo viability assay (Promega) was employed. Luminescence was read by using VictorV (Perkin Elmer) multilabel plate reader using the standard protocol for luminescence in 96 well plate. The experiment was performed in duplicate.
Data were expressed as % of inhibition compared to the 0.2% DMSO negative control, and was calculated as follows: […]
CRCs were analysed by GraphPad and IC50 values were calculated by non-linear regression using 4 parameter-logistic equation. IC50 (μM) values were reported in the final data table. The curve fittings were performed leaving free all the parameters. Any constrain were reported in the results table.

[1] = MV-4-11, Day 4, read-out: MV-4-11 Day 4 IC50
[2] = read-out: MOLM-13 (MLL-AF9) IC50
[3] = read-out: MOLM-13 (MLL-AF9) pIC50 (converted)

| IC50 (MV-4-11; [1]) [nM] | IC50 (MV-4-11; MV-4-11, Day 11, read-out: MV-4-11 Day 11 IC50) [nM] | IC50 (MOLM-13 (MLL-AF9); [2]) [nM] | IC50 (MOLM-13 (MLL-AF9); [3]) [nM] | SMILES | MOLM-13 (MLL-AF9) % max (MOLM-13 (MLL-AF9)) [%] | inhibition of cell viability (in words) (MOLM-13 (MLL-AF9); up to 20 μM) |
| --- | --- | --- | --- | --- | --- | --- |
| 490 | 257 | 320 | 324 | O=C(Nc1ccc(-c2cc3c(N4CCOCC4)ncnc3[nH]2)cc1)Nc1cc(-c2cccnc2)n[nH]1 [Compound 9, 1-{4-[4-(morpholin-4-yl)-7H-pyrrolo[2,3-d]pyrimidin-6-yl]phenyl}-3-[3-(pyridin-3-yl)-1H-pyrazol-5-yl]urea] | 94 | – |
| 280 | – | 260 | 257 | Cn1nc(-c2cccnc2)cc1CC(=O)Nc1ccc(-c2cc3c(N4CCOCC4)ncnc3[nH]2)cc1 [Compound 11, 2-[1-methyl-3-(pyridin-3-yl)-1H-pyrazol-5-yl]-N-{4-[4-(morpholin-4-yl)-7H-pyrrolo[2,3-d]pyrimidin-6-yl]phenyl}acetamide] | 95 | – |
| 430 | – | ~710 | ~708 | O=C(Cc1cc(-c2cccnc2)n[nH]1)Nc1ccc(-c2nc3c(N4CCOCC4)ncnc3[nH]2)cc1 [Compound 12, N-{4-[6-(morpholin-4-yl)-9H-purin-8-yl]phenyl}-2-[3-(pyridin-3-yl)-1H-pyrazol-5-yl]acetamide] | – | slightly active |
